Laboratory results published in patent publication US9415051B1, “Use of pemirolast” (priority 2015, dated 2016).
Where two headings read alike, the source gives them in different places.

What was measured:
hERG potassium channel = hERG potassium channel (Homo sapiens, UniProt Q12809)
Description: This study was performed by PhysioStim, France, a GLP compliant facility.
The effects of pemirolast on hERG currents in HEK-293 cells stably expressing the hERG potassium channel were studied using patch-clamp technique.

[1] = Toxicokinetics of pemirolast in the dog, 7-day oral repeated dose; set-up: species or system dog (Beagles); details: Beagle, in vivo, 75 mg/kg daily oral, 7th day
Description: There were no major differences in kinetics between males and females.

[2] = dog, in vivo
Description: The study, including all analyses and calculations, were performed by WIL Research, France, in compliance with Good Laboratory Practices (GLP).

[3] = Single and multiple-dose open safety and tolerability study, pharmacokinetics of pemirolast potassium tablets in humans; assay type: in vivo, human; details: for Cmax: human, plasma; for Cmax / Cmax, mean: multiple dose, healthy male subjects, N = 6
Description: This study comprised 18 healthy male subjects, 18-45 years of age, and was a single and multiple-dose, open study assessing the safety and tolerability of pemirolast potassium tablets (10 mg, Ulgixal™ tablets) with the doses 10, 30 and 50 mg (containing 8.5, 25.5 and 42.5 mg pemirolast free acid, respectively) b.i.d. (6 subjects in each dose group). The subjects received a single dose on the first day, then b.i.d. for three days and a single dose on the fifth day. The study was performed at the Berzelius Clinical Research Center AB in Linköping, Sweden. All laboratory pharmacokinetic analyses were performed by Quintiles AB, Uppsala, Sweden. Pharmacokinetic calculations were performed by Pharm Assist Sweden AB, Uppsala, Sweden. Mean Cmax data after multiple dosing are shown in and Table 1, and mean plasma concentrations over time on Day 5 are shown in FIG. 1.

[4] = tested on: airway or bronchial hyperresponsiveness; details: 50 mg doses twice daily in humans (Kemp et al 1992); cited from earlier work
asthma patients [5] = experiment: Clinical trial: adverse events, vital signs and laboratory tests; assay type: in vivo, human; details: single oral doses of 40 mg and 400 mg
[6] = Later pharmacokinetic studies in healthy volunteers, multiple doses b.i.d. for three and a half days; assay type: in vivo, human; details: for Cmax: human, plasma, oral, read-out: Actual Cmax
Description: Later pharmacokinetic studies in healthy volunteers (7 to 8 in each group) have shown that actual Cmax values for various multiple doses (b.i.d. for three and a half days) are as follows: […]

[7] = tested on: 11β-PGF2α (mast cell biomarker prostaglandin D2 metabolite); experiment: Clinical trial: urinary excretion of PGD2 metabolite 11β-PGF2α (EIA); assay type: in vivo, human; details: patients treated at least 3 days before with 40 mg or 400 mg, 4+4 patients, FIG. 3
Description: A secondary endpoint in the study was to analyse changes in urinary excretion of a metabolite (11β-prostaglandin (PG) F2α) of the lung mast cell mediator/biomarker prostaglandin D2. 11β-PGF2α analysis was performed in unextracted urine samples using a validated enzyme immunoassays (EIA) kit from Cayman Chemical, Ann Arbor, Mich., USA (Item no 516521). […]

[8] = tested on: airway hyperresponsiveness to mannitol challenge in asthma patients; experiment: Clinical trial: mannitol challenge test (PD15 for mannitol) in asthma patients; assay type: in vivo, human; details: for Mannitol dose tolerated (PD15) at the placebo visit; reduction in AHR/BHR: n=4, FIG. 2
Description: This study comprised male and female asthma patients (18 to 46 years of age) with a positive asthma test (as determined by a mannitol challenge test (vide infra) performed within 15 days prior to enrolment at the first screening visit, Visit 1).
It was a double-blind, randomized, placebo-controlled, cross-over trial assessing the efficacy of orally administered single doses of placebo and 40 mg and 400 mg of pemirolast (immediate release tablets containing pemirolast sodium hemihydrate, as well as microcrystalline cellulose, mannitol, copovidone fine, croscarmellose sodium, anhydrous colloidal silica and magnesium stearate) in patients challenged with mannitol inhalation as described below.
The patients were exposed to the different treatments at three separate hospital visits at least 2 (mean 6.8, median 6) days apart. The data reported in FIGS. 2 and 3 below represent the patients that received placebo treatment at the first visit (n=8) or placebo at the second visit (after 40 mg at the first visit (n=4) or after 400 mg at the first visit (n=4)).
All doses were administered 3 hours before initiation of the mannitol challenge test to ensure peak plasma concentrations of pemirolast when the mannitol challenge was performed (blood samples for analysing plasma concentrations of pemirolast were collected 3 hours after drug administration).
There were 5 visits during the trial: A screening visit (Visit 1, within 15 days before Visit 2), three visits for treatment with Investigational Medicinal Products (IMP; pemirolast 40 or 400 mg, or placebo) (Visit 2-4, spaced at least 2 days apart), and a final follow-up visit by telephone (Visit 5, at least 2, but less than 4 days after Visit 4 and within 30 days of Visit 2). […]

[9] = Clinical trial: plasma pemirolast concentration by LC-MS/MS; assay type: in vivo; details: human, 40 and 400 mg single oral doses, asthma patients
Description: All doses were administered 3 hours before initiation of the mannitol challenge test to ensure peak plasma concentrations of pemirolast when the mannitol challenge was performed (blood samples for analysing plasma concentrations of pemirolast were collected 3 hours after drug administration). All laboratory pharmacokinetic analyses were performed by Clinical Pharmacology, Karolinska University Hospital, Stockholm, Sweden. Briefly, the concentration of pemirolast in human plasma was determined by solid phase extraction and liquid chromatography followed by tandem mass spectrometric detection (LC-MS/MS). The analytical method, utilizing a 200 μL sample aliquot, has a calibration range of 4.00-4000 ng/mL, with a lower limit of quantification (LLOQ) set at 4.00 ng/mL.

asthma patients [10] = experiment: Clinical trial: FEV1 before and 3 hours after treatment; assay type: in vivo, human; details: 3 hours after an oral dose of 400 mg; 3.58±0.86 L before treatment; mean ±SD, n=22
[11] = 10 mg pemirolast potassium (8.5 mg free acid) oral b.i.d.
[12] = 30 mg pemirolast potassium (25.5 mg free acid) oral b.i.d.
[13] = 50 mg pemirolast potassium (42.5 mg free acid) oral b.i.d.

Sequence of hERG potassium channel (Q12809 whole entry): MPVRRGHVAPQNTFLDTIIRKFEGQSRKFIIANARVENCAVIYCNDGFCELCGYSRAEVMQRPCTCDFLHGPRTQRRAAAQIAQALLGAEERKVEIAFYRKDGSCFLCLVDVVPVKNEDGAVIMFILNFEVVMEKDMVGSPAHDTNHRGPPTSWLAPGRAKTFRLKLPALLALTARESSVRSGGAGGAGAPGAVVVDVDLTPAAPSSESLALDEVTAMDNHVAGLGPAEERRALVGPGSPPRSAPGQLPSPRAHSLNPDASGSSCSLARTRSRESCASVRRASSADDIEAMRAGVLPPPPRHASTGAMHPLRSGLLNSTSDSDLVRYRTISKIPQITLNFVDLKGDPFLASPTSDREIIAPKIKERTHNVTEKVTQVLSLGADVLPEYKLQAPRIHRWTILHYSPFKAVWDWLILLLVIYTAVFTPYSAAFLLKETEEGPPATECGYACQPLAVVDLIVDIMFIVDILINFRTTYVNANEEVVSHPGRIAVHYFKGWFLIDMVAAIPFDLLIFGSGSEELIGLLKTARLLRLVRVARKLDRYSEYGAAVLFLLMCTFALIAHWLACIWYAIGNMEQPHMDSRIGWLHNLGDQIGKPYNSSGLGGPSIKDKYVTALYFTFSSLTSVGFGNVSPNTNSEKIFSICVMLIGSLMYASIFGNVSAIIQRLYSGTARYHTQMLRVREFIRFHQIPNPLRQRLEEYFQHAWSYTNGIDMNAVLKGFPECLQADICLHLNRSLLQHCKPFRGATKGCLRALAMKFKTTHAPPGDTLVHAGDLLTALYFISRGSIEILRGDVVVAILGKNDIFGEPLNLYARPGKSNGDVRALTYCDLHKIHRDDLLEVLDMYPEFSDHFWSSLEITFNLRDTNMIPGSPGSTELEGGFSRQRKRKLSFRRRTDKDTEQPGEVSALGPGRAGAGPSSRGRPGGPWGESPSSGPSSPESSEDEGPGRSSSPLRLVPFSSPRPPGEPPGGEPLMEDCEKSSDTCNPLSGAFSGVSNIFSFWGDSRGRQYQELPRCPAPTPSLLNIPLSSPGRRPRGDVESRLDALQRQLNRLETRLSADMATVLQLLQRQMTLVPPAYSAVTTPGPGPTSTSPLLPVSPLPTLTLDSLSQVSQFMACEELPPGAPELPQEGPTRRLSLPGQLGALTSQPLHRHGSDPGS

Cc1cccn2c(=O)c(-c3nnn[nH]3)cnc12 [pemirolast potassium]
Decrease of hERG tail current amplitude (hERG potassium channel; 2.7 μg/mL): 5.4%
Decrease of hERG tail current amplitude (hERG potassium channel; 8 μg/mL): 10.2%
Decrease of hERG tail current amplitude (hERG potassium channel; 26.6 μg/mL): 14.1%
Decrease of hERG tail current amplitude (hERG potassium channel; 79.9 μg/mL): 19.0%
Cmax ([1]; female dogs (n = 3)): 150000 ng/mL
Cmax ([1]; male dogs (n = 3)): 168000 ng/mL
Safe chronic dose [2]: 75 mg/kg daily
Cmax [3, 11]: 730 ng/mL
Cmax [3, 12]: 2040 ng/mL
Cmax [3, 13]: 3420 ng/mL

Cc1cccn2c(=O)c(-c3nnn[nH]3)cnc12 [pemirolast]
Effect on airway or bronchial hyperresponsiveness [4]: no effect whatsoever
Adverse events, vital signs, physical examination, laboratory tests (asthma patients [5]): no serious adverse events
Safety and tolerability ([6]; 80, 200 and 320 mg b.i.d. for three and a half days): safe and well-tolerated
Cmax ([6]; 80 mg b.i.d. for three and a half days): 8840 ng/mL
Cmax ([6]; 200 mg b.i.d. for three and a half days): 32500 ng/mL
Cmax ([6]; 320 mg b.i.d. for three and a half days): 51000 ng/mL
Cmax, mean [3, 11]: 730 ng/mL
Cmax, mean [3, 12]: 2040 ng/mL
Cmax, mean [3, 13]: 3420 ng/mL
Predicted Cmax ([3]; predicted for 125 mg, linear extrapolation from 8.5 mg multiple dose): 10680 ng/mL
Predicted Cmax ([3]; predicted for 125 mg, linear extrapolation from 25.5 mg multiple dose): 9980 ng/mL
Predicted Cmax ([3]; predicted for 125 mg, linear extrapolation from 42.5 mg multiple dose): 10070 ng/mL
Predicted Cmax ([3]; predicted for 200 mg, linear extrapolation from 8.5 mg multiple dose): 17080 ng/mL
Predicted Cmax ([3]; predicted for 200 mg, linear extrapolation from 25.5 mg multiple dose): 15980 ng/mL
Predicted Cmax ([3]; predicted for 200 mg, linear extrapolation from 42.5 mg multiple dose): 16120 ng/mL
Predicted Cmax ([3]; predicted for 400 mg, linear extrapolation from 8.5 mg multiple dose): 34160 ng/mL
Predicted Cmax ([3]; predicted for 400 mg, linear extrapolation from 25.5 mg multiple dose): 31950 ng/mL
Predicted Cmax ([3]; predicted for 400 mg, linear extrapolation from 42.5 mg multiple dose): 32230 ng/mL
Urinary levels of the PGD2 biomarker (11β-PGF2α), 40 mg versus 400 mg [7]: did not differ
Mannitol PD15 ([8]; 3 hour pre-treatment, single oral dose, asthma patients): increased
Mannitol dose tolerated (PD15) at the placebo visit; reduction in AHR/BHR ([8]; single 40 mg oral dose before the placebo treatment): not seen
Mannitol dose tolerated (PD15) at the placebo visit; reduction in AHR/BHR ([8]; single 400 mg oral dose at least 3 days before placebo/mannitol): tolerated a much higher dose of mannitol
half-life [9]: 4 to 7 h
FEV1 (asthma patients [10]): 3.55 ± 0.84 L
